How the values were obtained:
recombinant human TIM-3 = assay: Human PBMC IFN-γ release assay in the presence of recombinant TIM-3; type: cell-based; settings: 100 nM compound, plate-coated TIM-3 + anti-CD3, anti-CD28, 72 h
Description: Vehicle: Milli Q water; RPMI 1640 (GIBCO, Cat #11875); Fetal Bovine Serum [Hyclone, Cat #SH30071.03]; Penicillin (10000 unit/ml)-Streptomycin (10,000 μg/ml) liquid (GIBCO, Cat #15140-122); MEM Sodium Pyruvate solution 100 mM (100×). Liquid (GIBCO, Cat #11360); Nonessential amino acid (GIBCO, Cat #11140); L-Glutamine (GIBCO, Cat #25030); Recombinant human TIM-3 (rhGi24 TIM-3/B7-H5 Fc chimera (R&D systems, cat no: 7126-B7); Anti-h/m Gi24/TIM-3/B7-H5 purified mouse monoclonal IgG2B (R&D systems, cat no: MAB7126); Mouse IgG2B isotype control (R&D Systems cat no: MAB 004); Anti human-CD3 antibody (eBiosciences—16-0039); Anti human-CD28 antibody (eBiosciences—16-0289); Histopaque (density-1.077 gm/ml) (SIGMA 1077); Trypan Blue solution (SIGMA-T8154); Hemacytometer (Bright line-SIGMA Z359629); FACS Buffer containing Phosphate Buffered Saline (PBS) pH 7.2; (HiMedia TS1006) with 0.1% Bovine Serum Albumin (BSA) (SIGMA A7050) and sodium azide (SIGMA 08591); 96-well format ELISA plates (Corning 3599); 96-well format ELISA plates (Corning 3361); BD FACS caliber (E6016); Centrifuge (Eppendorf 5810 R); Human IFN-'γ Duo set ELISA kit (R&D Systems; cat no: DY-285).
Human PBMC IFN-γ Release Assay
96-well cell culture plates were pre-coated with recombinant human TIM-3 (2.5 μg/ml) and anti-human CD3 (2.5 μg/ml), and stored at 4° C. overnight. Anti-human TIM-3 and isotype control antibodies were either coated along with the TIM-3 or incubated for 30 min next day before addition of cells. On the next day, plates were washed with 1× PBS and then incubated with test compounds for 30 min. Isolated PBMC (0.1×10^6 cells/well) and anti-human CD28 antibodies (1 μg/ml) were added to the wells. The culture was further incubated for 72 h at 37° C. with 5% CO2. After 72 h of incubation the cell culture supernatants were collected after brief centrifugation at 200 g×5 min at 4° C. and processed for human IFN-γ measurement by ELISA following manufacturer's protocol (R&D Systems; DY-285).
In brief, 96-well ELISA plates were coated with 100 μl/well of capture antibody in coating buffer and incubated overnight at 4° C. Plates were washed five times with wash buffer and further blocked with 200 μl of 1× assay diluents for 1 hr at RT. Following wash step, 100 μl of cell culture supernatants were added to wells and further incubated for 2 hr at RT. Appropriate standards were also included. After wash step, plate was incubated for one hour with 100 μl/well of detection antibody. The wash step was repeated and the plate was incubated for 30 min with 100 μl/well of Avidin-HRP. The plate was washed four times with wash buffer and subsequently incubated for 15 min with 100 μl/well of substrate solution. 50 μl of stop solution was added to each well and the plate was read at 450 nm using Gen5 ver 2.05. Delta OD values were used for calculating the concentrations. The absorbance values were plotted against the standards and the concentration of IFN-γ was determined using GraphPad Prism software. Each experimental condition was carried out in triplicates.
The percent rescue of IFN-γ release of the selected compounds of present invention are set forth below wherein “A” refers to compounds having more than 70% rescue of IFN-γ release, “B” refers to compounds having rescue of IFN-γ release ranges from 50% to 69.9% and “C” refers to compounds having less than 50% rescue of IFN-γ release.

PD-L1 = target: T1, PD-L1 (Mus musculus, UniProt Q9EP73); assay: Rescue of mouse splenocyte proliferation in the presence of recombinant PD-L1 (CFSE proliferation assay); type: cell-based; settings: 100 nM compound; anti-CD3/CD28 stimulated mouse splenocytes + PD-L1; 72 h; read-out: PDL1 (rescue of proliferation @ 100 nM)
T1 construct: Fc (Fc chimera); purchased R&D Systems 1019-B7-100
Description: Example 1: Rescue of Mouse Splenocyte Proliferation in the Presence of Recombinant PD-L1/PD-L2
Recombinant mouse PD-L1 (rm-PDL-1, cat no: 1019-B7-100; R&D Systems) were used as the source of PD-L1.
Mouse splenocytes harvested from 6-8 weeks old C57 BL6 mice; RPMI 1640 (GIBCO, Cat #11875); DMEM with high glucose (GIBCO, Cat #D6429); Fetal Bovine Serum [Hyclone, Cat #SH30071.03]; Penicillin (10000 unit/mL)-Streptomycin (10,000 μg/mL) Liquid (GIBCO, Cat #15140-122); MEM Sodium Pyruvate solution 100 mM (100×)), Liquid (GIBCO, Cat #11360); Nonessential amino acid (GIBCO, Cat #11140); L-Glutamine (GIBCO, Cat #25030); Anti-CD3 antibody (eBiosciences—16-0032); Anti-CD28 antibody (eBiosciences—16-0281); ACK lysis buffer (1 mL) (GIBCO, Cat #-A10492); Histopaque (density—1.083 gm/mL) (SIGMA 10831); Trypan blue solution (SIGMA-T8154); 2 mL Norm Ject Luer Lock syringe-(Sigma 2014-12); 40 μm nylon cell strainer (BD FALCON 35230); Hemacytometer (Bright line-SIGMA Z359629); FACS Buffer (PBS/0.1% BSA): Phosphate Buffered Saline (PBS) pH 7.2 (HiMedia TS1006) with 0.1% Bovine Serum Albumin (BSA) (SIGMA A7050) and sodium azide (SIGMA 08591); 5 mM stock solution of CFSE: CFSE stock solution was prepared by diluting lyophilized CFSE with 180 μL of Dimethyl sulfoxide (DMSO C2H6SO, SIGMA-D-5879) and aliquoted in to tubes for further use. Working concentrations were titrated from 10 μM to 1 μM. (eBioscience-650850-85); 0.05% Trypsin and 0.02% EDTA (SIGMA 59417C); 96-well format ELISA plates (Corning CLS3390); BD FACS caliber (E6016); Recombinant mouse B7-H1/PDL1 Fc Chimera, (rm-PD-L1 cat no: 1019-B7-100).
Splenocytes harvested in a 50 mL falcon tube by mashing mouse spleen in a 40 μm cell strainer were further treated with 1 mL ACK lysis buffer for 5 min at room temperature. After washing with 9 mL of RPMI complete media, cells were re-suspended in 3 mL of 1×PBS in a 15 mL tube. 3 mL of Histopaque was added carefully to the bottom of the tube without disturbing overlaying splenocyte suspension. After centrifuging at 800×g for 20 min at room temperature, the opaque layer of splenocytes was collected carefully without disturbing/mixing the layers. Splenocytes were washed twice with cold 1×PBS followed by total cell counting using Trypan Blue exclusion method and used further for cell based assays.
Splenocytes were cultured in RPMI complete media (RPMI+10% fetal bovine serum+1 mM sodium pyruvate+10,000 units/mL penicillin and 10,000 μg/mL streptomycin) and maintained in a CO2 incubator with 5% CO2 at 37° C.
CFSE Proliferation Assay: CFSE is a dye that passively diffuses into cells and hinds to intracellular proteins. 1×10^6 cells/mL of harvested splenocytes were treated with 5 μM of CFSE in pre-warmed 1×PBS/0.1% BSA solution for 10 min at 37° C. Excess CFSE was quenched using 5 volumes of ice-cold culture media to the cells and incubated on ice for 5 min. CFSE labeled splenocytes were further given three washes with ice cold complete RPMI media. CFSE labeled 1×10^5 splenocytes added to wells containing either MDA-MB231 cells (1×10^5 cells cultured in high glucose DMEM medium) or recombinant human PDL-1 (100 ng/mL) and test compounds. Splenocytes were stimulated with anti-mouse CD3 and anti-mouse CD28 antibody (1 μg/mL each), and the culture was further incubated for 72 h at 37° C. with 5% CO2. Cells were harvested and washed thrice with ice cold FACS buffer and % proliferation was analysed by flow cytometry with 488 nm excitation and 521 nm emission filters. Data Compilation, Processing and Inference: […]

T1 sequence (Q9EP73 19-238 limits assumed): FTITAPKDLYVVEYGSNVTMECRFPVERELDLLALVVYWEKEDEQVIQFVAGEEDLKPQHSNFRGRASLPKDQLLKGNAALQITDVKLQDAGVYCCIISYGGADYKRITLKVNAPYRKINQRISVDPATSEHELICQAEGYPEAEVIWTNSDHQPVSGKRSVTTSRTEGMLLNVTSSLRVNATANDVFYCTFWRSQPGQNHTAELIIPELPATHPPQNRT

Structure (SMILES)	activity at 0.1 µM (PD-L1) [%]	TIM-3 (rescue of IFN γ release @ 100 nM) (recombinant human TIM-3)
CC(O)[C@H](NC(=O)N[C@@H](CCCCN)c1nc([C@@H](N)CO)no1)C(=O)O (stereo partly shown) [Compound 13]	66	C (less than 50% rescue of IFN-γ release)
CC(O)[C@H](NC(=O)N[C@@H](CC(=O)O)c1nc([C@@H](N)CO)no1)C(=O)O (stereo partly shown) [Compound 4]	52	C (less than 50% rescue of IFN-γ release)
NCCCC[C@H](N)c1noc([C@H](CCC(=O)O)NC(=O)N[C@@H](CO)C(=O)O)n1 [Compound 11]	60	C (less than 50% rescue of IFN-γ release)
CC(C)[C@H](NC(=O)N[C@@H](CC(N)=O)c1nc([C@@H](N)CCCCN)no1)C(=O)O [Compound 9]	138	C (less than 50% rescue of IFN-γ release)

Continued, in another order:

activity at 0.1 µM (PD-L1) [%]	Structure (SMILES)	TIM-3 (rescue of IFN γ release @ 100 nM) (recombinant human TIM-3)
50	CCC(C)[C@H](NC(=O)N[C@H](C(=O)O)C(C)O)c1nc([C@@H](N)CO)no1 (stereo partly shown) [Compound 15]	C (less than 50% rescue of IFN-γ release)
84	COC(C)[C@H](NC(=O)N[C@@H](CC(N)=O)c1nc([C@@H](N)CO)no1)C(=O)O (stereo partly shown) [Compound 14]	C (less than 50% rescue of IFN-γ release)
54	N[C@@H](Cc1ccc(O)cc1)c1noc([C@@H]2CCCCN2C(=O)N[C@@H](Cc2ccc(O)cc2)C(=O)O)n1 [Compound 19]	C (less than 50% rescue of IFN-γ release)
70	N=C(N)NCCC[C@H](N)c1noc([C@H](CC(N)=O)NC(=O)N[C@@H](CO)C(=O)O)n1 [Compound 25]	A (more than 70% rescue of IFN-γ release)

From patent US11497734B2, “Dual inhibitors of TIM-3 and PD-1 pathways” (Aurigene Discovery Technologies Limited, priority 2017, dated 2022)
